What was measured:
Assay type in all cases: cell-based
MA104 cells = assay: Cytotoxicity test (cell morphology, trypan blue viability): non-toxic dose on MA104 cells; settings: MA104 cell line, 72 h
Method: (§1) It was carried out in accordance with the methods that were reported. In 1 mL of ethyl alcohol, 100 mg of sample was dissolved. A sample of 24 μL of 100× antibiotic–antimycotic mixture was added to 1 mL of sample to decontaminate it. Then, bi-fold dilutions were done to 100 μL of the original dissolved sample, and 100 μL of each dilution was inoculated in Hep-2, BGM, MA104, and CaCo-2 cell lines (obtained from the Holding Company for Biological Products & Vaccines VACSERA, Giza, Egypt) previously cultured in 96 multi well plates (Greiner-Bio one, Frickenhausen, Germany) to estimate the sample’s non-toxic dose. Inverted light microscope cell morphology and trypan blue dye exclusion cell viability tests were used for cytotoxicity assay.
(§2) The Hep-2, BGM, MA104, and CaCo-2 cell cultures were each seeded at a concentration of 2 × 10^5 cells/mL and grown individually in 96-well tissue culture plates (Greiner-Bio one, Frickenhausen, Germany). After an incubation period of 24 h at 37 °C in an atmosphere containing 5% (v/v) CO2, cell monolayers were confluent. At this point, the media was withdrawn from each well and replaced with 100 μL of bi-fold dilutions of the sample examined that were prepared in Dulbecco’s Modified Eagle Medium (DMEM) (GIBCO BRL, Darmstadt, Germany). For the purpose of cell controls, 100 μL of DMEM containing no samples was added. All the cultures were kept in an atmosphere with 5% (v/v) CO2 that was humidified and incubated at 37 °C for a total of 72 h. […] Morphology shifts were observed and scored.
(§3) Trypan blue dye was excluded from the experiment. […]. In 12-well tissue culture plates, Hep-2, BGM, MA104, and CaCo-2 cells (2 × 10^5 cells/mL) were cultivated (Greiner-Bio one, Frickenhausen, Germany). Following an incubation period of 24 h, 100 μL of tested sample dilutions, also known as bi-fold dilutions, were added to each well, and the results were examined in the same manner as described previously. After 72 h, the medium was removed, the cells were trypsinized, and an equal amount of an aqueous solution containing 0.4% (w/v) trypan blue dye was added. Counting the number of viable cells required phase contrast microscopes.

[1] = system: human rotavirus Wa strain; assay: Rotavirus titers by plaque assay after treatment with non-toxic doses; settings: virus 1 × 10^7 PFU/mL, Mean ± SD of three results
Method: The Rotavirus Wa strain, at a concentration of 1 × 10^7 PFU/mL, was mixed with non-toxic dilutions in a volume of 100 μL. At a temperature of 37 °C and 10 μg/mL of trypsin, the rotavirus stocks became infectious after 30 min. The mixture was incubated for half an hour at 37 °C. The Hep 2, BGM, and MA104 cell lines were seeded into the wells of 12 multi-well plates and then injected with 100 μL (10-fold) dilutions of the treated and untreated rotavirus Wa strain after an hour of adsorption at 37 °C in an atmosphere containing 5% CO2-water vapor without shaking. The plates were bounced at regular intervals to prevent the cells from drying out. Following the adsorption step, 1 mL of a 2× media consisting of Dulbecco’s Modified Eagle Medium, Gibco-BRL (DMEM), and 1% agarose were added to each well. The mixture of medium and agarose was given an additional 0.5 μg/mL of trypsin so that it could test for the rotavirus Wa strain. The plates were kept in an incubator with an environment containing 5% CO2 and water vapor at 37 °C. After being fixed with formalin and stained with crystal violet at a concentration of 0.4%, the plaques were counted. After that, the PFU/mL viral titers were determined.

BGM cells = assay: Cytotoxicity test (cell morphology, trypan blue viability): non-toxic dose on BGM cells; settings: BGM cell line, 72 h
Method: as §1, §2, §3

Hep-2 cells = assay: Cytotoxicity test (cell morphology, trypan blue viability): non-toxic dose on Hep-2 cells; settings: Hep-2 cell line, 72 h
Method: as §1, §2, §3

O=C1c2ccccc2C(=O)N1CCCSc1nc2cc3ccccc3cc2c(=O)n1Cc1ccccc1 [Compound 13]
Non-Toxic Doses (MA104 cells): 50 µg/mL | % Reduction of Rotavirus Wa strain [1]: 20% ± 3% | Non-Toxic Doses (BGM cells): 40 µg/mL | Non-Toxic Doses (Hep-2 cells): 45 µg/mL

CCn1c(NN)nc2cc3ccccc3cc2c1=O [Compound 15]
Non-Toxic Doses (MA104 cells): 55 µg/mL | Non-Toxic Doses (BGM cells): 55 µg/mL | Non-Toxic Doses (Hep-2 cells): 55 µg/mL

CCn1c(SCc2ccc(C#N)cc2)nc2cc3ccccc3cc2c1=O [Compound 10]
Non-Toxic Doses (MA104 cells): 55 µg/mL | Non-Toxic Doses (BGM cells): 50 µg/mL | Non-Toxic Doses (Hep-2 cells): 50 µg/mL

Cn1c(NN)nc2cc3ccccc3cc2c1=O [Compound 14]
Non-Toxic Doses (MA104 cells): 60 µg/mL | Non-Toxic Doses (BGM cells): 55 µg/mL | Non-Toxic Doses (Hep-2 cells): 60 µg/mL

Cn1c(=S)[nH]c2cc3ccccc3cc2c1=O [Compound 1]
Non-Toxic Doses (MA104 cells): 65 µg/mL | Non-Toxic Doses (BGM cells): 60 µg/mL | Non-Toxic Doses (Hep-2 cells): 65 µg/mL

N#Cc1ccc(CSc2nc3cc4ccccc4cc3c(=O)n2Cc2ccccc2)cc1 [Compound 11]
Non-Toxic Doses (MA104 cells): 65 µg/mL | Non-Toxic Doses (BGM cells): 65 µg/mL | Non-Toxic Doses (Hep-2 cells): 65 µg/mL

CCn1c(SCc2ccc(Cl)cc2)nc2cc3ccccc3cc2c1=O [Compound 7]
Non-Toxic Doses (MA104 cells): 60 µg/mL | Non-Toxic Doses (BGM cells): 60 µg/mL | Non-Toxic Doses (Hep-2 cells): 60 µg/mL

CCn1c(SCc2cccc(OC)c2)nc2cc3ccccc3cc2c1=O [Compound 5]
Non-Toxic Doses (MA104 cells): 55 µg/mL | Non-Toxic Doses (BGM cells): 55 µg/mL | Non-Toxic Doses (Hep-2 cells): 60 µg/mL

COc1cccc(CSc2nc3cc4ccccc4cc3c(=O)n2Cc2ccccc2)c1 [Compound 6]
Non-Toxic Doses (MA104 cells): 65 µg/mL | % Reduction of Rotavirus Wa strain [1]: 20% ± 4% | Non-Toxic Doses (BGM cells): 65 µg/mL | Non-Toxic Doses (Hep-2 cells): 65 µg/mL

NNc1nc2cc3ccccc3cc2c(=O)n1Cc1ccccc1 [Compound 16]
Non-Toxic Doses (MA104 cells): 60 µg/mL | Non-Toxic Doses (BGM cells): 60 µg/mL | Non-Toxic Doses (Hep-2 cells): 65 µg/mL

COc1cccc(CSc2nc3cc4ccccc4cc3c(=O)n2C)c1 [Compound 4]
Non-Toxic Doses (MA104 cells): 55 µg/mL | Non-Toxic Doses (BGM cells): 50 µg/mL | Non-Toxic Doses (Hep-2 cells): 55 µg/mL

O=c1c2cc3ccccc3cc2nc(SCc2ccc(Cl)cc2)n1Cc1ccccc1 [Compound 8]
Non-Toxic Doses (MA104 cells): 50 µg/mL | Non-Toxic Doses (BGM cells): 50 µg/mL | Non-Toxic Doses (Hep-2 cells): 50 µg/mL

CCn1c(SCCCN2C(=O)c3ccccc3C2=O)nc2cc3ccccc3cc2c1=O [Compound 12]
Non-Toxic Doses (MA104 cells): 30 µg/mL | Non-Toxic Doses (BGM cells): 25 µg/mL | Non-Toxic Doses (Hep-2 cells): 30 µg/mL

O=c1c2cc3ccccc3cc2[nH]c(=S)n1Cc1ccccc1 [Compound 3]
Non-Toxic Doses (MA104 cells): 75 µg/mL | Non-Toxic Doses (BGM cells): 60 µg/mL | Non-Toxic Doses (Hep-2 cells): 70 µg/mL

Cn1c(SCc2cccc(C#N)c2)nc2cc3ccccc3cc2c1=O [Compound 9]
Non-Toxic Doses (MA104 cells): 75 µg/mL | Non-Toxic Doses (BGM cells): 65 µg/mL | Non-Toxic Doses (Hep-2 cells): 70 µg/mL

CCn1c(=S)[nH]c2cc3ccccc3cc2c1=O [Compound 2]
Non-Toxic Doses (MA104 cells): 60 µg/mL | Non-Toxic Doses (BGM cells): 60 µg/mL | Non-Toxic Doses (Hep-2 cells): 60 µg/mL

Reference: PMC10047800, “Evaluation of Some Benzo[g]Quinazoline Derivatives as Antiviral Agents against Human Rotavirus Wa Strain: Biological Screening and Docking Study” (Current Issues in Molecular Biology, 2023)
